Assay results taken from paper PMC3166236 (Journal of medicinal chemistry, 2011).

What was measured:
[1] = Enzymatic stability in rat intestinal homogenate pH 6.5 at 37 °C; conditions: Sprague-Dawley, pH 6.5, Half-lives, rat intestinal homogenate pH 6.5, 37 °C
in vitro = conditions: human
hPEPT1 = hPEPT1 expressed in the model system; cited from earlier work
[2] = parent (S)-HPMPA; cited from earlier work
KB cells = conditions: human
Towne strain of HCMV = assay: microbe, parasite or virus in culture; type: cell-based, human cytomegalovirus; conditions: Human betaherpesvirus 5, read-out: Antiviral Activity IC50 HCMV
[3] = test system: Vaccinia virus strain Copenhagen; assay: microbe, parasite or virus in culture; type: cell-based; conditions: Orthopoxvirus vaccinia, read-out: Antiviral Activity IC50 Vaccinia
[4] = in vivo murine model; relative to 2 or its cyclic form 4; cited from earlier work
[5] = t1/2 Intestinal Homogenate pH 6.5, Rp isomer
[6] = t1/2 Intestinal Homogenate pH 6.5, Sp isomer

SMILES | half-life at 0.5 mg/ml [1, 5] | half-life at 0.5 mg/ml [1, 6] | IC50 (in vitro) | also measured
CC(C)OC(=O)[C@@H](N)Cc1ccc(OP2(=O)CO[C@@H](Cn3ccc(N)nc3=O)CO2)cc1 (mixture of isomers) [Compound 8, Isopropyl O-[(5S)-5-[(4-amino-2-oxopyrimidin-1(2H)-yl)methyl]-2-oxido-1,4,2-dioxaphosphinan-2-yl]-(L)-tyrosinate] | < 0.5 h | < 0.5 h | > 100 µM | 
Nc1ncnc2c1ncn2C[C@H]1COP(=O)(O)CO1 [Compound 3, (5S)-5-[(6-Amino-9H-purin-9-yl)methyl]-1,4,2-dioxaphosphinan-2-ol 2-oxide, reference compound] |  |  | > 100 µM | 
CC(C)CNC(=O)[C@@H](N)Cc1ccc(OP2(=O)CO[C@@H](Cn3cnc4c(N)ncnc43)CO2)cc1 (mixture of isomers) [Compound 11, O-[(5S)-5-[(6-Amino-9H-purin-9-yl)methyl]-2-oxido-1,4,2-dioxaphosphinan-2-yl]-N-(2-methylpropyl)-(L)-tyrosinamide] | 12.8 h | 1.9 h | > 100 µM | half-life (Stability in rat plasma; Rp diastereomer): 3.55 h; half-life (Stability in rat plasma; Sp diastereomer): 0.383 h
COC(=O)[C@H](N)Cc1ccc(OP2(=O)CO[C@@H](Cn3ccc(N)nc3=O)CO2)cc1 (stereo partly drawn) [Compound 7, Methyl O-[(5S)-5-[(4-amino-2-oxopyrimidin-1(2H)-yl)methyl]-2-oxido-1,4,2-dioxaphosphinan-2-yl]-(D)-tyrosinate] | 3.5 h | 1.2 h | > 100 µM | 
CC(C)(C)NC(=O)[C@H](N)Cc1ccc(OP2(=O)CO[C@@H](Cn3ccc(N)nc3=O)CO2)cc1 (stereo partly drawn) [Compound 9, O-[(5S)-5-[(4-Amino-2-oxopyrimidin-1(2H)-yl)methyl]-2-oxido-1,4,2-dioxaphosphinan-2-yl]-N-tert-butyl-(D)-tyrosinamide] | 28.9 h | 3.85 h | > 100 µM | 
COC(=O)[C@H](COP1(=O)CO[C@@H](Cn2ccc(N)nc2=O)CO1)NC(=O)[C@@H](N)C(C)C (stereo partly drawn) [Val-Ser-OMe cHPMPC] |  |  |  | binding and transport by hPEPT1 (hPEPT1): tightly bound but not transported
Nc1ncnc2c1ncn2C[C@@H](CO)OCP(=O)(O)O [Compound 1, (S)-9-[3-hydroxy-2-(phosphonomethoxy)propyl]adenine, reference compound] |  |  | > 100 µM | oral bioavailability of the parent compound [2]: < 5%
CC(C)CNC(=O)[C@@H](N)Cc1ccc(OP(=O)(O)CO[C@H](CO)Cn2cnc3c(N)ncnc32)cc1 [Compound 28, O-[([[(2S)-1-(6-Amino-9H-purin-9-yl)-3-hydroxypropan-2-yl]oxy]methyl)(hydroxy)phosphoryl]-N-(2-methylpropyl)-(L)-tyrosinamide] |  |  | > 100 µM | 
CC(C)CNC(=O)[C@@H](N)Cc1ccc(OP2(=O)CO[C@@H](Cn3cnc4c(N)ncnc43)CO2)cc1 (mixture of isomers) [11´, O-[(5S)-5-[(6-Amino-9H-purin-9-yl)methyl]-2-oxido-1,4,2-dioxaphosphinan-2-yl]-N-(2-methylpropyl)-(L)-tyrosinamide] |  |  |  | IC50 (KB cells): > 100 µM
COC(=O)[C@@H](N)Cc1ccc(OP2(=O)CO[C@@H](Cn3cnc4c(N)ncnc43)CO2)cc1 (stereo partly drawn) [Compound 10, Methyl O-[(5S)-5-[(6-amino-9H-purin-9-yl)methyl]-2-oxido-1,4,2-dioxaphosphinan-2-yl]-(L)-tyrosinate] | < 0.5 h | < 0.5 h | > 100 µM | 
COC(=O)[C@@H](N)Cc1ccc(OP2(=O)CO[C@@H](Cn3ccc(N)nc3=O)CO2)cc1 (stereo partly drawn) [Compound 6, Methyl O-[(5S)-5-[(4-amino-2-oxopyrimidin-1(2H)-yl)methyl]-2-oxido-1,4,2-dioxaphosphinan-2-yl]-(L)-tyrosinate] | < 0.5 h | < 0.5 h | > 100 µM | 
Nc1ccn(C[C@H]2COP(=O)(O)CO2)c(=O)n1 [Compound 4] |  |  | > 100 µM | IC50 (Towne strain of HCMV): 0.25 µM; IC50 [3]: 40 µM
Nc1ccn(C[C@@H](CO)OCP(=O)(O)O)c(=O)n1 [Compound 2, 1-(S)-[3-hydroxy-2-(phosphonomethoxy)propyl]cytosine, reference compound] |  |  | > 100 µM | IC50 [3]: 20 µM
CC(C)OC(=O)[C@@H](N)Cc1ccc(OP2(=O)CO[C@@H](Cn3ccc(N)nc3=O)CO2)cc1 (mixture of isomers) [8´, Isopropyl O-[(5S)-5-[(4-amino-2-oxopyrimidin-1(2H)-yl)methyl]-2-oxido-1,4,2-dioxaphosphinan-2-yl]-(L)-tyrosinate] |  |  |  | IC50 (KB cells): > 100 µM
COC(=O)C(COP1(=O)COC(Cn2ccc(N)nc2=O)CO1)NC(=O)C(N)C(C)C (stereo not drawn) [(L)-Val-(L)-Ser-OMe cHPMPC] |  |  |  | increase in oral bioavailability of total 2 species [4]: eight-fold
COC(=O)[C@H](Cc1ccc(OP2(=O)CO[C@@H](Cn3cnc4c(N)ncnc43)CO2)cc1)NC(=O)[C@@H](N)C(C)C (stereo partly drawn) [Compound 13, Methyl (L)-valyl-O-[(5S)-5-[(6-amino-9H-purin-9-yl)methyl]-2-oxido-1,4,2-dioxaphosphinan-2-yl]-(L)-tyrosinate] | < 0.5 h | < 0.5 h | > 100 µM | 
